Data: PubChem BioAssay AID1259411 (Chemical Carcinogenesis Research Information System (CCRIS), 2018)
Active and inactive are the calls of the source. The rule behind the calls is not given here.

Tested on: rodent carcinogenicity bioassays, tumor incidence
Experiment: CCRIS carcinogenicity studies
How it was run: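 Archive of carcinogenicity, mutagenicity, tumor promotion and tumor inhibition results drawn from journals, NCI reports and other sources, expert-reviewed; covers 1985-2011 and is no longer updated.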

CO/N=C(/C1=NOCCO1)c1ccccc1Oc1ncnc(Oc2ccccc2Cl)c1F
carcinogen call (Species: Mouse, Strain/Sex: CD-1/Female (50/Group), Route: Oral, Dose: 0, 29.5, 204.0, 1265.1 mg/kg/day of 94.3% - 94.5% fluoxastrobin in diet for 18 mo, study duration 18 mo, Dose: 0, 29.5, 204.0, 1265.1 mg/kg/day of 94.3% - 94.5% fluoxastrobin in diet for 18 mo, study duration 18 mo): inactive; negative
carcinogen call (Species: Mouse, Strain/Sex: CD-1/Male (50/Group), Route: Oral, Dose: 0, 18.6, 135.4, 775.6 mg/kg/day of 94.3% - 94.5% fluoxastrobin in diet for 18 mo, study duration 18 mo, Dose: 0, 18.6, 135.4, 775.6 mg/kg/day of 94.3% - 94.5% fluoxastrobin in diet for 18 mo, study duration 18 mo): inactive; negative
carcinogen call (Species: Rat, Strain/Sex: Wistar/Female (50/Group), Route: Oral, Dose: 0, 6.9, 35.2, 181.3, 1083.2 mg/kg/day of 94.3-94.6% fluoxastrobin in diet for 2 yr, study duration 2 yr, Dose: 0, 6.9, 35.2, 181.3, 1083.2 mg/kg/day of 94.3-94.6% fluoxastrobin in diet for 2 yr, study duration 2 yr, Tumor Site: Type of Lesion: Uterus: adenocarcinoma (highest dose only)): active; positive
carcinogen call (Species: Rat, Strain/Sex: Wistar/Male (50/Group), Route: Oral, Dose: 0, 2.1, 5.2, 53.0, 271.9 mg/kg/day of 94.3-94.6% fluoxastrobin in diet for 2 yr, study duration 2 yr, Dose: 0, 2.1, 5.2, 53.0, 271.9 mg/kg/day of 94.3-94.6% fluoxastrobin in diet for 2 yr, study duration 2 yr): inactive; negative

CCNN
carcinogen call (Species: MOUSE, Strain/Sex: SWISS/FEMALE, Route: ORAL, Dose: 0, 0.0125% IN DRINKING WATER FOR LIFE FOR AN AVERAGE DAILY DOSE OF 0, 0.92 MG (STUDY DURATION: 130 WK), Dose: 0, 0.0125% IN DRINKING WATER FOR LIFE FOR AN AVERAGE DAILY DOSE OF 0, 0.92 MG (STUDY DURATION: 130 WK), Tumor Site: Type of Lesion: LUNG: ADENOMA OR ADENOCARCINOMA, BLOOD VESSEL: ANGIOSARCOMA OR ANGIOMA): active; positive
carcinogen call (Species: MOUSE, Strain/Sex: SWISS/MALE, Route: ORAL, Dose: 0, 0.0125% IN DRINKING WATER FOR LIFE FOR AN AVERAGE DAILY DOSE OF 0, 1.52 MG (STUDY DURATION: 130 WK), Dose: 0, 0.0125% IN DRINKING WATER FOR LIFE FOR AN AVERAGE DAILY DOSE OF 0, 1.52 MG (STUDY DURATION: 130 WK), Tumor Site: Type of Lesion: LUNG: ADENOMA OR ADENOCARCINOMA, BLOOD VESSEL: ANGIOSARCOMA OR ANGIOMA): active; positive

CC(C)N=C=NC(C)C
carcinogen call (Species: Mouse, Strain/Sex: B6C3F1/Female (50/Group), Route: Dermal, Dose: 0, 10, 20, 40 mg/kg in anhydrous ethanol 5 d/wk for 2 yr, Dose: 0, 10, 20, 40 mg/kg in anhydrous ethanol 5 d/wk for 2 yr): inactive; negative
carcinogen call (Species: Mouse, Strain/Sex: B6C3F1/Male (50/Group), Route: Dermal, Dose: 0, 10, 20, 40 mg/kg in anhydrous ethanol 5 d/wk for 2 yr, Dose: 0, 10, 20, 40 mg/kg in anhydrous ethanol 5 d/wk for 2 yr): inactive; negative
carcinogen call (Species: Rat, Strain/Sex: F344/N/Female (50/Group), Route: Dermal, Dose: 0, 10, 20, 40 mg/kg in anhydrous ethanol 5 d/wk for 2 yr, Dose: 0, 10, 20, 40 mg/kg in anhydrous ethanol 5 d/wk for 2 yr): inactive; negative
carcinogen call (Species: Rat, Strain/Sex: F344/N/Male (50/Group), Route: Dermal, Dose: 0, 10, 20, 40 mg/kg in anhydrous ethanol 5 d/wk for 2 yr, Dose: 0, 10, 20, 40 mg/kg in anhydrous ethanol 5 d/wk for 2 yr): inactive; negative

Cc1c2ccccc2c(C=O)c2ccc3ccccc3c12
carcinogen call (Species: RAT, Strain/Sex: SPRAGUE-DAWLEY/FEMALE (13/GROUP), Route: SUBCUTANEOUS, Dose: 0.2 UMOL 3X A WK FOR 20 DOSES (STUDY DURATION: 52 WK), Tumor Site: Type of Lesion: MAMMARY: ADENOCARCINOMA): active; positive (15%)
carcinogen call (Species: RAT, Strain/Sex: SPRAGUE-DAWLEY/FEMALE (13/GROUP), Route: SUBCUTANEOUS, Dose: 0.2 UMOL 3X A WK FOR 20 DOSES (STUDY DURATION: 52 WK), Tumor Site: Type of Lesion: SUBCUTANEOUS, SARCOMA): active; positive (85%)

OCCNCCO
carcinogen call (Species: MOUSE, Strain/Sex: B6C3F1/FEMALE, Route: DERMAL, Dose: 0, 40, 80, 160 MG/KG BW IN ETHANOL 5 D/WK FOR 103 WK (STUDY DURATION: 103 WK), Dose: 0, 40, 80, 160 MG/KG BW IN ETHANOL 5 D/WK FOR 103 WK (STUDY DURATION: 103 WK), Tumor Site: Type of Lesion: LIVER: HEPATOCELLULAR ADENOMA, HEPATOCELLULAR CARCINOMA, OR HEPATOBLASTOMA): active; positive
carcinogen call (Species: MOUSE, Strain/Sex: B6C3F1/MALE, Route: DERMAL, Dose: 0, 40, 80, 160 MG/KG BW IN ETHANOL 5 D/WK FOR 103 WK (STUDY DURATION: 103 WK), Dose: 0, 40, 80, 160 MG/KG BW IN ETHANOL 5 D/WK FOR 103 WK (STUDY DURATION: 103 WK), Tumor Site: Type of Lesion: LIVER: HEPATOCELLULAR ADENOMA, HEPATOCELLULAR CARCINOMA, OR HEPATOBLASTOMA): active; positive
carcinogen call (Species: RAT, Strain/Sex: F344/N/FEMALE, Route: DERMAL, Dose: 0, 8, 16, 32 MG/KG BW IN ETHANOL 5 D/WK FOR 103 WK (STUDY DURATION: 103 WK), Dose: 0, 8, 16, 32 MG/KG BW IN ETHANOL 5 D/WK FOR 103 WK (STUDY DURATION: 103 WK)): inactive; negative
carcinogen call (Species: RAT, Strain/Sex: F344/N/MALE, Route: DERMAL, Dose: 0, 16, 32, 64 MG/KG BW IN ETHANOL 5 D/WK FOR 103 WK (STUDY DURATION: 103 WK), Dose: 0, 16, 32, 64 MG/KG BW IN ETHANOL 5 D/WK FOR 103 WK (STUDY DURATION: 103 WK)): inactive; negative

O=[N+]([O-])c1cc2c3c(cccc3c1)-c1ccccc1-2
carcinogen call (Species: MOUSE, Strain/Sex: B6C3F1/MALE, Route: INTRAPERITONEAL, Dose: 0, 400 NMOL IN 35 µL DMSO ON DAYS 1 (1/7 TOTAL DOSE), 8 (2/7 TOTAL DOSE), AND 15 (4/7 TOTAL DOSE) AFTER BIRTH (STUDY DUR): inactive; negative

Nc1nc2c(ncn2[C@@H]2C[C@H](CO)[C@H]2CO)c(=O)[nH]1
carcinogen call (Species: Mouse, Strain/Sex: CD-1/Female (60/Group), Route: Oral, Dose: 0, 30, 150, 750 mg/kg in diet for 104 wk, Dose: 0, 30, 150, 750 mg/kg in diet for 104 wk, Tumor Site: Type of Lesion: Upper digestive tract: squamous cell papilloma and carcinoma (0/60 and 0/60 in controls vs 0/60, 3/60, and 4/60, respect): active; positive
carcinogen call (Species: Mouse, Strain/Sex: CD-1/Male (60/Group), Route: Oral, Dose: 0, 10, 50, 250 mg/kg in diet for 104 wk, Dose: 0, 10, 50, 250 mg/kg in diet for 104 wk, Tumor Site: Type of Lesion: Upper digestive tract: squamous cell papilloma or carcinoma (0/60 and 0/60 in controls vs 0/60, 3/60, and 4/60, respecti): active; positive

FC(F)(F)C(Cl)Cl
carcinogen call (Species: RAT, Strain/Sex: CRL:CDBR/FEMALE, Route: INHALATION, Dose: 0, 300, 1000, 5000 PPM 6 HR/D 5 D/WK FOR 2 YR (STUDY DURATION: 2 YR), Dose: 0, 300, 1000, 5000 PPM 6 HR/D 5 D/WK FOR 2 YR (STUDY DURATION: 2 YR), Tumor Site: Type of Lesion: LIVER: ADENOMA, CHOLANGIOFIBROMA): active; positive
carcinogen call (Species: RAT, Strain/Sex: CRL:CDBR/MALE, Route: INHALATION, Dose: 0, 300, 1000, 5000 PPM 6 HR/D 5 D/WK FOR 2 YR (STUDY DURATION: 2 YR), Dose: 0, 300, 1000, 5000 PPM 6 HR/D 5 D/WK FOR 2 YR (STUDY DURATION: 2 YR), Tumor Site: Type of Lesion: LIVER: ADENOMA, PANCREAS: ADENOMA, TESTES: ADENOMA, Tumor Site: Type of Lesion: LIVER: ADENOMA, PANCREAS: ADENOMA, TESTES: ADENOMA): active; positive

O=C(O)CC(O)(CC(=O)O)C(=O)O
carcinogen call (Species: MOUSE, Strain/Sex: BC3F1/FEMALE, Route: IP INJECTION ONCE, Dose: 100, 500, 1000, 5000 BQ (STUDY DURATION: LIFESPAN), Dose: 100, 500, 1000, 5000 BQ (STUDY DURATION: LIFESPAN), Tumor Site: Type of Lesion: BONE: OSTEOSARCOMAS): active; positive
carcinogen call (Species: MOUSE, Strain/Sex: C3H/FEMALE, Route: IP INJECTION ONCE, Dose: 100, 500, 1000, 5000 BQ (STUDY DURATION: LIFESPAN), Dose: 100, 500, 1000, 5000 BQ (STUDY DURATION: LIFESPAN), Tumor Site: Type of Lesion: BONE: OSTEOSARCOMAS): active; positive
carcinogen call (Species: MOUSE, Strain/Sex: C57BL/6/FEMALE, Route: IP INJECTION ONCE, Dose: 100, 500, 1000, 5000 BQ (STUDY DURATION: LIFESPAN), Dose: 100, 500, 1000, 5000 BQ (STUDY DURATION: LIFESPAN), Tumor Site: Type of Lesion: BONE: OSTEOSARCOMAS): active; positive

C#C[C@]1(O)CC[C@H]2[C@@H]3CCc4cc(OC)ccc4[C@H]3CC[C@@]21C
carcinogen call (Species: MOUSE, Route: ORAL, Tumor Site: Type of Lesion: MAMMARY GLAND, PITUITARY GLAND): active; positive
carcinogen call (Species: RAT, Route: ORAL, Tumor Site: Type of Lesion: MAMMARY GLAND): active; positive

C=CC(=O)OC(C)COCC(C)OCC(C)OC(=O)C=C (configuration not stated)
carcinogen call (Species: MOUSE, Strain/Sex: TG.AC/FEMALE, Route: DERMAL, Dose: 0, 1, 5, 10 UMOL IN 200 µL ACETONE 3/WK FOR 20 WK (STUDY DURATION: 20 WK), Dose: 0, 1, 5, 10 UMOL IN 200 µL ACETONE 3/WK FOR 20 WK (STUDY DURATION: 20 WK), Tumor Site: Type of Lesion: SKIN: PAPILLOMA): active; positive
